Reference: US6759419B2, “Pyrrolidinone derivatives, their preparation and pharmaceutical composition comprising the same” (Korea Institute of Science and Technology, priority 2001, dated 2004)

Key:
[1] = target: muscarinic receptors (Oxo-M binding receptor, forebrain synapse membranes); assay: [3H]-oxotremorine-M ([3H]-Oxo-M) affinity screening test; conditions: inhibition of 50% of specific binding of [3H]-Oxo-M (5 nM) to the receptor; rat brain membranes
Method: [^3H]-oxotremorine-M ([^3H]-Oxo-M) Affinity Screening Test
The experimental principle was the same as [^3H]-NMS affinity screening test. The present experiment was carried out in order to identify the pharmacological functions (an agonist or antagonist) of the compounds showing high affinity in [3H]-NMS affinity screening test. The functions of the compounds may be determined by carrying out both of [^3H]-NMS and [^3H]-Oxo-M (oxotremorine) affinity screening tests to measure their respective IC50 values and calculating ratios (NMS/Oxo-M) of the measured IC50 values. Generally, the compounds are evaluated as muscarinic receptor full agonists when the ratio is greater than 180, as partial agonists when the ratio is from 14 to 130, and as antagonists when the ratio is from 0.2 to 1.9.
Preparation of Brain Membrane
Synapse membranes for binding assay of Oxo-M binding receptor of muscarinic receptors were directly prepared and used in the laboratory as follows: male Sparague-Dawley rats (supplied from Laboratory Animal Center of Korea Research Institute of Chemical Technology, 250 to 300 g) were sacrificed by decapitation. The brain tissues were immediately removed and the forebrain was obtained, which was sectioned into small pieces. After adding 10-fold amount of ice-cooled solution of sucrose (0.32M), the sectioned forebrain was homogenized using Teflon-glass homogenizer (Contorque, Eberbach) at 10 strokes and 500 rpm, centrifuged at 1000 g for 15 minutes, and then the supernatant was again centrifuged at 17000 g for 20 minutes. The pellet was stored at −20° C. and then used.
Before the pellet was used at this assay, it was suspended in 10 mL of […] HEPES buffer (pH 7.4), again centrifuged at 17000 g for 15 minutes and then washed. Finally, the washed membrane was diluted in ice-cooled 20 mM HEPES buffer (pH 7.4) to the final concentration of 1:100 (wet wt/v) and used at this assay. All test samples were tested four times, and 20 mM HEPES buffer (pH 7.4) was used as a buffer for screening test. […] The radioactivity of the receptor binding ligands was detected by Liquid Scintillation Counter (MicroBeta Plus, Wallac, Finland).
The test drugs were diluted sequentially for the required concentrations by dissolving them in dimethylsulfoxide (DMSO) and used in the test. […] From the saturated affinity screening test, Kd and Bmax values, and IC50 or Ki values of respective test drugs were calculated by observing the non-linear regression using prism (Graphpad software Inc., USA). […]
(§1) The following table 1 illustrates the affinity of representative compounds of the present invention for muscarinic receptors measured by binding of [^3H]-N-methyl scopolamine ([^3H]-NMS) and [^3H]-oxotremorine ([^3H]-Oxo-M) to cortex receptor of rats. […]

muscarinic receptors = assay: [3H]-N-methyl-scopolamine ([3H]-NMS) affinity screening test; design: species or system rat; conditions: inhibition of 50% of specific binding of [3H]-NMS to the receptor; cortex receptor of rats
Text: [^3H]-N-methyl-scopolamine ([^3H]-NMS) Affinity Screening Test
In order to exclude the interaction between subtypes, human recombinant muscarinic receptor subtypes 1, 2 and 3 expressed in CHO cells (M1, M2 and M3, Biosignal, Canada) were purchased and used as receptor sources. [^3H]-N-methyl-scopolamine (NEN, NET-636) was used as radioisotope labeled ligands, and atropine was used for the measurement of the non-specific binding ability. About 10 kinds of experimental apparatuses including Liquid Scintillation Counter (MicroBeta 1450 plus), Inotech cell harvester (96-well) were used.
In order to determine the effect of each compound on M1 and M2 receptors, the compounds were reacted with the receptors using radioisotope labeled ligands. After the reaction, the excess unbound ligands were removed by filtering with a glass fiber filter. The amount of radioisotopes remaining on the washed filter plate was then measured to quantify the binding reaction between the receptors and the ligands and, from the results, the affinity of the drugs for the receptors was determined.
The freeze-stored receptors at −70° C. were suspended in test buffer solutions and then the screening test (BioRad protein) was carried out to determine the optimum concentration of the proteins. Thereafter, 50 μL of hot-ligands and 10 μL of test drugs were added to 96-well plate and 100 μL of 50 mM TRIS buffer (pH 7.2) containing 10 mM MgCl2 and 1 mM EDTA was added as a test buffer. The final volume of the reaction was […]. The reaction was initiated by adding 100 μL of the diluted receptor suspension, and continued for 60 minutes on a shaking incubator at 27° C. This test for the test drugs was repeated four times. After 60 minutes, the reaction was terminated by adding cold TRIS buffer (0.5 mL, pH 7.4). The excess unbound radioisotopes were removed from the reaction mixture using Inotech cell harvester system. After washing the mixture, the radioactivity detected by the filter mat was measured using Liquid Scintillation Counter. As primary stage of the efficacy screening, the drugs at two concentrations (1 μM, 10 μM) were screened for their affinity for the receptors. As secondary stage, the drugs showing remarkable efficacies were determined at the lower concentrations. Finally, IC50 values were calculated at the gradient of 10 concentrations. […] From the saturation affinity screening test, Kd and Bmax values, and IC50 or Ki values of each test drugs were calculated by observing the non-linear regression using prism (Graphpad software Inc.,USA). […]
as §1

## COC(=O)C1=CCCN(C)C1 [Arecoline, reference compound]
[1]
  IC50: 140 nM
Muscarinic receptors
  IC50: 87100 nM

## CN1CCC=C(C2=NOC(N3CCCC3=O)C2)C1 (centres unmarked) [Example 15, 1-[3-(1-methyl-1,2,5,6-tetrahydropyridin-3-yl)-4,5-dihydro-isoxazol-5-yl]-pyrrolidin-2-one]
[1]
  IC50: 220 nM
Muscarinic receptors
  IC50: 8310 nM

## CN1CCC=C(C2=NOC(CN3CCCC3=O)C2)C1 (centres unmarked) [Example 18, 1-[3-(1-methyl-1,2,5,6-tetrahydro-pyridin-3-yl)-4,5-dihydro-isoxazol-5-yl-methyl]-pyrrolidin-2-one]
[1]
  IC50: 30 nM
Muscarinic receptors
  IC50: 180 nM

## CN1CCC=C(c2cc(CN3CCCC3=O)on2)C1 [Example 23, 1-[3-(1-methyl-1,2,5,6-tetrahydro-pyridin-3-yl)-isoxazol-5-yl-methyl]-pyrrolidin-2-one]
[1]
  IC50: 370 nM
Muscarinic receptors
  IC50: 1490 nM
